Data as given in patent publication US20220411377A1, “SELECTIVE NEURONAL NITRIC OXIDE SYNTHASE INHIBITORS” (Northwestern University, priority 2019, published 2022).
pKi: −log10 of the molar value. Where a name gives a salt, the structure may show the parent alone. Each block holds one compound with its values, some of them ahead of it.

What was measured:
[1] = target: rat nNOS D597N single mutant (Rattus norvegicus, UniProt P29476, D597N)
human eNOS (heNOS) = target: T1, human eNOS (heNOS) (Homo sapiens, UniProt P29474); experiment: Hemoglobin capture assay, purified human eNOS; format: biochemical
T1 construct: made in house; host or cells: E. coli

human iNOS (hiNOS) = human iNOS (hiNOS) (Homo sapiens, UniProt P35228); conditions: read-out: Ki hiNOS; Ki calculated from IC50 (Cheng-Prusoff)
H2 receptor = H2 receptor (Homo sapiens, UniProt P25021); experiment: PDSP off-target profiling, H2 receptor; format: binding
H2 receptor, sequence (P25021 whole entry): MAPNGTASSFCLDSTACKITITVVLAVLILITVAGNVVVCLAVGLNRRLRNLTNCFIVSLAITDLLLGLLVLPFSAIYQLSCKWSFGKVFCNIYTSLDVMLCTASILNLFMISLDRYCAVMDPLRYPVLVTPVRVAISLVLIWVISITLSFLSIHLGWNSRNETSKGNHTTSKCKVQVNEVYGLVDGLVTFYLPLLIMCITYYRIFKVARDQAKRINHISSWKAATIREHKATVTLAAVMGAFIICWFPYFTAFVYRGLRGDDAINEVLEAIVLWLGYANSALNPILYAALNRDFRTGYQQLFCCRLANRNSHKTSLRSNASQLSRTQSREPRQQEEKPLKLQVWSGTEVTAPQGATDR

rat nNOS (rnNOS) = target: T2, rat nNOS (rnNOS) (Rattus norvegicus, UniProt P29476); experiment: Hemoglobin capture assay, purified rat nNOS; format: biochemical
T2 construct: made in house; host or cells: E. coli

H3 receptor = H3 receptor (Homo sapiens, UniProt Q9Y5N1); experiment: PDSP off-target profiling, H3 receptor
H3 receptor, sequence (Q9Y5N1 whole entry): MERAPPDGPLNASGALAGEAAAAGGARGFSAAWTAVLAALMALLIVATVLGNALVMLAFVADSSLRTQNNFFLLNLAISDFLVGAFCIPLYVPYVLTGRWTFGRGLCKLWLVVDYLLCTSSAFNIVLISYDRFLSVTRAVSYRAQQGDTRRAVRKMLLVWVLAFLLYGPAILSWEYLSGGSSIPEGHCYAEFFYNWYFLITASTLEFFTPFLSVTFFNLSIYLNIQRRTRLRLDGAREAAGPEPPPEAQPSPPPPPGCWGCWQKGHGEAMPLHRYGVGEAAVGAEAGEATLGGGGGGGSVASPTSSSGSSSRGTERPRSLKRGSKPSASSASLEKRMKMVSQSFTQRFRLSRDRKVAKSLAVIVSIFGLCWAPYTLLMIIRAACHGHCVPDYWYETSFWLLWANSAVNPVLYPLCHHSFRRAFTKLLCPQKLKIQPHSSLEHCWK

[2] = test system: panel of 45 pharmacologically relevant CNS targets and receptors; conditions: for PDSP binding summary: insignificant: 10 µM
[3] = target: rat nNOS M336V/D597N double mutant (Rattus norvegicus, UniProt P29476, D597N/M336V); conditions: versus the single mutant
[4] = PAMPA

Compound: 7-(3-(2-Aminoethyl)phenyl)-4-methylquinolin-2-amine Dihydrochloride [Compound 12]
- ΔGbind hnNOS D597N mutant ([1]; obtained from Ki values): -7.3 kcal/mol
- decrease in potency, D597N mutant ([1]; versus wild type): 8 fold
- pKi (human eNOS (heNOS); Ki calculated from IC50): 4.28
- ΔGbind WT heNOS (human eNOS (heNOS); obtained from Ki values): -4.5 kcal/mol
- pKi (human iNOS (hiNOS)): 4.52
- % remaining at 60 min (—NADPH) (HLM without NADPH, 60 min): 87%
- % remaining at 60 min (buffer) (buffer control, 60 min): 67%
- t1/2 (half-life in HLM, Dihydrochloride): >1 h
- CLint (in vitro intrinsic clearance, HLM): 8 mL/min/kg
- off-target binding classification, H2 receptor (H2 receptor): concerning (concerning (Ki<100 nM, or <˜2× nNOS Ki value))

Compound: Cc1cc(N)nc2cc(-c3ccc(CN)cc3)ccc12.Cl.Cl [Compound 7, 7-(4-(Aminomethyl)phenyl)-4-methylquinolin-2-amine Dihydrochloride]
- increase in rnNOS activity (rat nNOS (rnNOS); relative to 5): 2.3 fold

Compound: Cc1cc(N)nc2cc(-c3ccc(OCC4CC4)c(CN)c3)ccc12.Cl.Cl [Compound 29, 7-(3-(Aminomethyl)-4-(cyclopropylmethoxy)phenyl)-4-methylquinolin-2-amine Dihydrochloride]
- off-target binding classification, H3 receptor (H3 receptor): concerning (concerning (Ki<100 nM, or <˜2× nNOS Ki value))

Compound: Cc1cc(N)nc2cc(-c3ccc(OCc4cccnc4)c(CN)c3)ccc12.Cl.Cl.Cl [Compound 33, 7-(3-(Aminomethyl)-4-(pyridin-3-ylmethoxy)phenyl)-4-methylquinolin-2-amine Trihydrochloride]
- fraction of concerning or moderate hits [2]: 8/45
- PDSP binding summary: insignificant [2]: 20
- improvement in binding affinity toward heNOS (human eNOS (heNOS); 33 versus 32): 3 fold

Compound: NCCc1ccc(O)c(O)c1 [dopamine]
- prediction (CNS) [4]: CNS (−)

The remaining lines, values ahead:

- loss in rnNOS potency relative to comparator (rat nNOS (rnNOS); 6 vs 5, 15 and 18 vs 12, 17 vs 7): approximately 3 fold
- pKi (rat nNOS (rnNOS); wild-type rat nNOS, Ki calculated from IC50): 6.74
Compound: Cc1cc(N)nc2cc(-c3ccc4c(c3)C(N)CC4)ccc12.Cl.Cl (racemic) [Compound 18, 7-(3-Amino-2,3-dihydro-1H-inden-5-yl)-4-methylquinolin-2-amine Dihydrochloride]

- fraction of concerning or moderate hits [2]: 11/45
- PDSP binding summary: insignificant [2]: 12
Compound: Cc1cc(N)nc2cc(-c3ccc(OCc4ccccn4)c(CN)c3)ccc12.Cl.Cl.Cl [Compound 32, 7-(3-(Aminomethyl)-4-(pyridin-2-ylmethoxy)phenyl)-4-methylquinolin-2-amine Trihydrochloride]

- increased potency against the double mutant [3]: 5 fold
Compound: Cc1cc(N)nc2cc(-c3ccc(OCc4cocn4)c(CN)c3)ccc12 [Compound 36, 7-(3-(Aminomethy)-4-(oxazol-4-ylmethoxy)phenyl)-4-methylquinolin-2-amine Trihydrochloride]
